For data set [1], the system named is primary human dermal fibroblasts (HDFs). In words: MTS cytotoxicity assay. The procedure:
MTS ((3-(4,5-dimethylthiazol-2-yl)-5-(3-carboxymethoxyphenyl)-2-(4-sulfophenyl)-2H-tetrazolium)) assay and high content analysis (HCA) were performed to elucidate the effect of various polymers on metabolic activity and morphological parameters of cultured human dermal fibroblasts (hDF), respectively as described previously. The antineoplastic agent, nocodazole (5 μg/ml), served as the […] control whereas cells treated with PBS served as positive control. The average values from three independent triplicate experiments are reported. Cells were cultured in 96-well plates and scanned (16 randomly selected fields/well) using an automated microscope IN Cell Analyzer 2200 (GE Healthcare). The multi-parametric cytotoxicity bio-application module of the IN Cell Investigator software (GE Healthcare) was used in quantitative estimations and morphotypic analysis of acquired images, which were automatically converted into color-coded heatmaps using Spotrfire® software.
Human dermal fibroblast cells were seeded in 96-well plates (2×10^3 cells/well) and incubated for 24 h at 37° C. and 5% CO2. Cells were then treated with various concentrations of polymers or peptides (62.5 μg/ml-1 mg/ml. At the end of the treatment period (after 24 h), 20 or 50 μl of MTS tetrazolium solution was added into 96-well or 12-well plates and further incubated for 2 h at 37° C. Subsequently, the absorbance was measured at 490 nm using a microplate reader (Infinite M200 Pro, Tecan, Switzerland) and the relative cell viability was calculated. Each treatment was performed in two triplicates and reported.
The cytotoxicity of peptides and polymers were determined using CellTier 96® Aqueous One solution cell proliferation assay kit according to the manufacturer's instruction (Promega Corporation, Madison, Wis.). This assay evaluates mitochondrial function by measuring ability of viable cells to reduce MTS ((3-(4,5-dimethylthiazol-2-yl)-5-(3-carboxymethoxyphenyl)-2-(4-sulfophenyl)-2H-tetrazolium)) into a quantifiable […] formazan product. HDFs were seeded in 96-well plates (2×10^3 cells/well) and incubated for 24 h at 37° C. and 5% CO2. Cells were then treated with a concentrated stock solution of polymers (final concentration 62.5-2000 μg/ml in the well) or peptides (final concentration 4-1000 μg/ml in the well). After 24 h, 20 μl of MTS tetrazolium solution was added into 96-well well plates and further incubated for 2 h at 37° C. Subsequently, the absorbance was measured at 490 nm using a microplate reader (Infinite M200 Pro, Tecan, Switzerland) and the relative cell viability was calculated relative to untreated control (10 mM PBS, pH 7.0). Each treatment was performed in two triplicates and reported.
On the technique in general: Tetrazolium assays rely on reduction of a dye to a coloured formazan, in cell work by metabolically active cells.

For data set [2], the system named is Vancomycin-resistant Enterococcus (VRE). The settings on record: VRE (n = 21), 90% of strains susceptible, Table 7. The procedure: (§1) MIC of cationic polymers and polypeptide were tested in accordance with the Clinical and Laboratory Standards Institute (CLSI) guidelines against a panel of antibiotic-susceptible/-resistant bacteria, yeasts and fungal strains. Bacterial and yeast strains were cultured on tryptic soy agar (TSA) and Sabaroud dextrose agar (SDA) plates (Neogen Corporation, MI, USA) overnight respectively. Inocula in Mueller-Hinton broth (MHB) for bacteria and SD broth for C. albicans (Beckton Dickinson, MD, USA) were prepared at 0.5 McFarland. The suspensions were then diluted to a final concentration of 10^5 CFU/ml in a 96-well microtitre plate (SPL Life Sciences Co., Ltd, Korea). […] The antimicrobial activities were compared with topical antiseptic agents, BAK and CHX. A similar protocol was used to determine the MIC of εPL against antibiotic-resistant pathogens. MIC of the polymers and polypeptides against Fusarium strains was determined in full strength RPMI-1640 buffer. Fungal spores were recovered from a 5-day old culture on a potato dextrose agar and diluted to a concentration of 10^5 spores/ml in 0.9% saline solution. A further 50-fold dilution was done in RPMI-1640 buffer and 100 μl of the inoculum was added to 96 well plates containing an equal volume of test peptides at 2-fold serial dilutions. 200 μl of inoculum without any additives and buffer alone served as positive and negative controls, respectively. The plate was then incubated at 30° C. for 48 h. The absorbance value was measured at 600 nm as before and the lowest concentration of the peptide which inhibited 90% growth was reported. All MIC determinations were performed in duplicates.
(§2) MICs of polymers/antibiotics were determined using the microdilution method in 96 well microtitre plates (SPL Life Sciences Co., Ltd, Korea), following the guidelines of Clinical and Laboratory Standards Institute (CLSI) document M100-S18. Briefly, polymers (1-512 μg/ml) or antibiotics were dissolved in appropriate media (Mueller Hinton broth, MHB for bacteria; Sabaroud's Dextrose (SD) broth for yeasts and RPMI buffer for Fusarium strains) and 100 μl of this was then mixed with an equal volume of microbial inoculum (OD600=˜0.08) in the same media and shaken in a closed incubator.

Data set [3] deals with Carbapenam-resistant Enterobacter strains (CRE). In words: microbe, parasite or virus in culture. The procedure: as §1, §2
Data set [4] relates to A. baumannii. Briefly: microbe, parasite or virus in culture. On the procedure: as §1, §2
Data set [5] deals with E. coli. Briefly: microbe, parasite or virus in culture. The settings on record: Escherichia coli; E. coli (n = 8), range over strains; read-out: MIC. The class given is cell-based, Escherichia coli. The procedure:
as §1, with “Korea). Polymers and polypeptides were added to the inoculum in 2-fold serial dilutions to give a range of concentrations from 2-1024 μg/ml.” for “Korea).”
as §2

Data set [6] concerns K. pneumoniae. In words: microbe, parasite or virus in culture. The settings on record: Klebsiella pneumoniae; K. pneumoniae (n = 8), range over strains; read-out: MIC. Type of data set: cell-based, Klebsiella pneumoniae. On the procedure: as §1, with “Korea). Polymers and polypeptides were added to the inoculum in 2-fold serial dilutions to give a range of concentrations from 2-1024 μg/ml.” for “Korea).”
as §2

Data set [7] has as its system S. aureus. Briefly: microbe, parasite or virus in culture. The class given is cell-based, Staphylococcus aureus. The settings on record: Staphylococcus aureus; S. aureus (n = 9); read-out: MIC. On the procedure: as §1, with “Korea). Polymers and polypeptides were added to the inoculum in 2-fold serial dilutions to give a range of concentrations from 2-1024 μg/ml.” for “Korea).”
as §2

Data set [8] relates to E. cloacae complex. In words: microbe, parasite or virus in culture. The settings on record: Enterobacter cloacae. The procedure: as §1, §2
The test system of data set [9] is red blood cells. The settings on record: cited from earlier work.
Data set [10] concerns a number of micro-organisms. The settings on record: cited from earlier work.
The mark [11] stands for this setting: at 5 × 10^5 CFU/mL, reference 7.
Where [12] appears, read: at 5 × 10^5 CFU/mL, reference 5.

≈ marks a conversion by molar mass, not a printed value. Like-named read-outs stand apart in the source and are kept apart here. No end group written: not given here. Some results are limits rather than exact numbers.

As for `CC[C@H](C)[C@H](NC(=O)[C@H](CO)NC(=O)[C@H](CCCCN)NC(=O)[C@H](CC(C)C)NC(=O)[C@H](CCCCN)NC(=O)[C@@H](N)CC(C)C)C(=O)N[C@H](C(=O)N[C@@H](CO)C(=O)N[C@@H](Cc1c[nH]c2ccccc12)C(=O)N[C@@H](C)C(=O)N[C@@H](CCCCN)C(=O)N[C@@H](CCCCN)C(=O)N[C@H](C(=O)N[C@@H](CC(C)C)C(N)=O)C(C)C)C(C)C` [Mastoparan B, LKLKSIVSWAKKVL], the “Peptide concentration required to impart cytotoxic effect” value in [1] (MTS assay, primary human fibroblasts) is “exceeded 62.5 μg/ml”. In data set [1] (Table 7), the “Cytotoxicity for HDFs” value turned out to be 125 µg/mL. Besides, the MIC90 entry in [2] is “(MIC90 = 4)^1 μg/ml”; in data set [4] (A. baumanii (n = 10), 90% of strains susceptible, Table 7) it was “(MIC90 = 2) μg/ml”. In [3] (CRE (n = 19), 50% of strains susceptible, Table 7), the MIC50 entry is “(MIC50 = 4) μg/ml”.
For the molecule `NC[C@H]1O[C@H](O[C@H]2[C@H](O)[C@@H](O[C@H]3O[C@H](CO)[C@@H](O)[C@H](N)[C@H]3O)[C@H](N)C[C@@H]2N)[C@H](N)C[C@@H]1O` [Tobramycin], the MIC in data set [5] lay in the range of 195 to 100000 µg/mL (≈ 417 to 214000 µM); in data set [6], 195 to 100000 µg/mL (≈ 417 to 214000 µM); in data set [7], 500 to 1000 µg/mL (≈ 1070 to 2140 µM); in [8], 1560 to 100000 µg/mL (≈ 3340 to 214000 µM); in [3] (Enterobacter), 800 to 50000 µg/mL (≈ 1710 to 107000 µM); in data set [4] (Acinetobacter baumannii) it was 800 to 50000 µg/mL (≈ 1710 to 107000 µM).
As to “CGIGAVLKVLTTGLPALISWIKRKRQQC [Modified peptide: CGIGAVLKVLTTGLPALISWIKRKRQQC (cyclised)] (also: cyclised, mode not given here)”, the Haemolytic activity in [9] (at 10 μM, reference 7) is reported as about 50% at 10 μM. In addition, in data set [10] (setting [11]), the “MIC (range against a number of micro-organisms)” value is reported as 0.8 - 10 μM at.
Consider “CGIGAVLKVLTTGLPALISWIKRKRQQC [Unmodified parent peptide: CGIGAVLKVLTTGLPALISWIKRKRQQC (lin]”, for which the Haemolytic activity result in [9] (at 10 μM, reference 7) is “Complete”. Further, the “MIC (range against a number of micro-organisms)” value in data set [10] (setting [11]) is given as 2 - 32 μM at.
Take “GIGAVKKVLTTGKPALISWKKRKRQQ (not fully specified (residues 6, 13, 20); ends and bridges not checked; also: peptoid residue at 6, 13, 20 (identity not given here))”: in data set [9] (at 100 μM, reference 6), the Haemolytic activity is listed as under 10% at 100 μM. In addition, the “MIC (range against a number of micro-organisms)” value in [10] (at 1 × 10^6 CFU/mL, reference 6) is reported as 2 - 8 μM at.
Regarding “GIGAVLKVLTTGLCALISWIKRKRQQ (ends and bridges not checked)”, the Haemolytic activity in data set [9] (at 2.5 μM, reference 8) was 50% at 2.5 μM.
With “GIGAVLKVLTTGLPALISWIKRKRQQ [listing 1 of 2 here]”, the Haemolytic activity in data set [9] (at 2 μM, reference 4) is 100% at 2 μM. For the same molecule, the “MIC (range against a number of micro-organisms)” value in data set [10] (at 1 - 4 × 10^5 CFU/mL, reference 4) is given as 0.1 - 2 μM at 1 -.
For the molecule “GIGAVLKVLTTGLPALISWIKRKRQQ [listing 2 of 2 here]”, in [9] (reference 9, result in words), the Haemolytic activity result was “Loss of peptide”. In addition, the MIC entry in data set [10] (reference 9, result in words) is on record as “Loss of peptide”.
Turning to “GIGAVLKVLTTGLPALISWIKRKRQQ-NH2 [Modified peptide: GIGAVLKVLTTGLPALISWIKRKRQQ-NH2]”, the Haemolytic activity in [9] (at 50 μM, reference 5) is under 25% at 50 μM. Besides, the “MIC (range against a number of micro-organisms)” value in data set [10] (setting [12]) is 0.8 - 12 μM at.
As to “GIGAVLKVLTTGLPALISWIKRKRQQ-NH2 [Unmodified parent peptide: GIGAVLKVLTTGLPALISWIKRKRQQ-NH2]”, the Haemolytic activity in data set [9] (at <10 μM, reference 5) is 100% at <10 μM. Moreover, the “MIC (range against a number of micro-organisms)” value in data set [10] (setting [12]) is listed as 0.3 - 20 μM at.

Values taken from patent US11396531B2, “Antimicrobial peptides comprising epsilon lysine residues” (priority 2016, dated 2022).
